One assay deals with CUG60 RNA. The assay is described as follows: Circular dichroism of CUG60 RNA. It counts as binding. As to conditions: RNA 1 μM, p10 0.1-20 μM, MblZF 1 and 1.5 μM, ppyawa 0.5 and 1 μM, payawe 1 μM. Here is the method: However, this effect was not reverted when the RNA was incubated jointly with MblZF and p10, regardless of the order of addition (C).
In order to study possible changes in the secondary structure of RNA induced by p10, in the first place we performed a circular dichroism (CD) experiment, using an RNA with unlabelled CUG repeats (CUG60). The circular dichroism of nucleic acids is caused by the stacking of the bases that make up the sequence thereof. Consequently, when a molecule binds to RNA, affecting the structure thereof, a change is detected in its CD spectrum. […] When we incubated the RNA with increasing concentrations of the peptide of SEQ ID NO: 10 (0.1 μM, 0.5 μM, 1 μM, 10 μM and 20 μM), a similar effect was observed (FIG. 27B). During the readings, the RNA was kept in the cuvette inside the dichrograph at 10° C. Throughout the 3 hours of each experiment, it was possible for the RNA to have been degraded; this would explain the decrease in the intensity of the signal observed. In order to rule out this possibility, the CD spectrum of CUG60 RNA was measured at times 0 and 3 h, having kept the CUG60 RNA at 10° C. at all times.

The subject of assay [1] is 103Y-Gal4/+;UAS-CTG(480)/+ flies. Kind of assay: Lethality phenotype in pupae caused by expression of 480 CTG under 103Y-Gal4 (females born). To be noted: administered to larvae in the food; compared with p10. It counts as in vivo, Drosophila. Here is the method:
The 120 vials that make up the chemical library were individually assayed on the lethality phenotype in pupae caused by the expression of 480 CTG under the control of 103Y-Gal4 at a concentration of 80 μM. […] Thus, for positions O1, O2, O3, O4, O5 and O6 of the hexapeptide, a total of six, three, six, four, two and seven active amino acids were obtained, respectively (FIG. 2A). In order to perform the deconvolution, 10 of these 28 amino acids were selected, on the basis of their degree of activity in the biological assay (FIG. 2A). Finally, of the possible combinations, 16 sequences were selected to perform the synthesis of the defined hexapeptides (FIG. 2B). The selection of these 16 peptides was based on redundancy criteria between the physical and chemical properties of active amino acids in similar positions.
At 250 μM, the activity of the peptide decreased, possibly due to a toxic effect of the peptide at higher concentrations.
In order to determine the contribution of each of the p10 residues to their activity on CTG(480), an alanine scanning experiment was performed. These experiments are based on substituting every amino acid of the peptide with alanine and keeping the rest. Alanine is a small amino acid and, in general, not very active; this is why it is used for this type of studies. Since each alanine substitution examines the contribution of an individual amino acid, this experiment makes it possible, on the one hand, to evaluate whether p10 is susceptible to optimisation (in the event that a substitution increases the efficacy of the molecule), or to determine which amino acids are important for its function (in the event that a substitution decreases the activity thereof). The sequence of p10 allows for 5 substitutions; for this reason, 5 new hexapeptides were synthesised which were assayed in relation to the lethality phenotype in 103Y-Gal4; UAS-CTG(480)/+ flies and commercial food.

A further assay has as its system 2-AP-(CUG)23 RNA. The assay is described as follows: 2-aminopurine fluorescence assay (hairpin opening). It counts as biochemical. To be noted: for destructuration of CUG23 probe, comparative 2-aminopurine assay: 100 μM. On the procedure: Measurements of the fluorescence emitted (Y-axis), measured as relative fluorescence units (RFU), by 2-aminopurine in a (CUG)23 RNA (1 μM) in the presence of MblZF (0.1 μM, 1 μM, 2 μM and 5 μM) (A) or p10 (0.1 μM, 1 μM, 2 μM, 5 μM and 100 μM) (B), relative to the fluorescence emitted by the free RNA. p10 caused a 2.9-increase in the fluorescence of 2-AP at 100 μM, which indicates a change towards single-stranded. This effect was not observed when incubating the RNA with DMSO, or with the alanine scanning peptides with sequences: ppyawa and payawe (C).
In order to confirm whether said changes cause a loss of the hairpin loop structure, an experiment was performed using an RNA composed of 23 CUG repeats, wherein a guanine had been substituted with its analogue 2-aminopurine (2-AP-(CUG)23). When 2-AP is in a single-stranded environment, it emits fluorescence at 375 nm. […] However, upon increasing the concentration of p10 to 100 μM (RNA:peptide 1:100), the 2AP-(CUG)23 RNA underwent a conformational change, from double-stranded to single-stranded, with a 2.9-fold increase in the fluorescence emission of the molecule (FIG. 28B). In order to confirm the specificity of this effect, the same experiment was performed, incubating the alanine scanning peptides (payawe and ppyawa) with the 2-AP-(CUG)23 RNA at the same concentration as p10 (100 μM).
As may be observed in FIG. 29, in this example we use the 2-aminopurine assay in order to assay 4 peptides (p11, p5, p12 and p15) in addition to p10, obtained from the deconvolution of the combinatorial peptide library explained in this invention. […] The concentration used in all cases is 100 μM.

Another assay concerns FAM-(CUG)23 RNA. The assay is described as follows: Fluorescence gel retardation assay with FAM-(CUG)23. It counts as binding. To be noted: peptide 2.5 mM, RNA 60 nM. The text has this: The changes on the RNA caused by p10 in the FP assay are small, probably due to the low molecular weight of the molecule (less than 900 Da). For this reason, it was decided to supplement the study with gel retardation experiments. These assays are based on the differences in electrophoretic mobility between stable protein-nucleic acid complexes and their components separately. Since the FAM-(CUG)23 RNA was available, it was decided to prepare a fluorescence gel retardation assay. After determining the optimal quantity of RNA for detection (60 nM; FIG. 21A), the binding between the latter and MblZF was studied. Said binding caused both a decrease in the intensity of the band corresponding to the free RNA in the gel and the appearance of a signal in the interior of the gel wells (bound RNA).
In order to determine whether p10 could bind to CUG RNA molecules, it was decided to perform a similar gel retardation experiment between the peptide and FAM-(CUG)23. p10 bound to the RNA, with part of the complex being retained in the well, as described for MblZF. […] This affinity decreased upon decreasing the size of the repeats (FAM-(CUG)4, FIG. 24C). […] This could be due either to a synergic effect between the protein and the peptide or to an additive effect if both should bind to different RNA sites.
In order to study the specificity of the binding observed between p10 and the CUG repeats, two experiments were performed. In the first place, the five hexapeptides generated during the alanine scanning were assayed. […] In the second place, we studied the effect of p10 on other RNA and DNA sequences, both double-stranded and single-stranded, fluorescently labelled with carboxyfluorescein (FAM) (FIG. 25C).

Assay [2] concerns 103Y-Gal4/+;UAS-CTG(480)/+ flies. Kind of assay: Lethality phenotype in pupae caused by expression of 480 CTG under 103Y-Gal4 (females born). The format is in vivo, Drosophila. Also noted: key: —: - indicates that no females were born, in neither the control tubes and the treated tubes. As to conditions: females born vs DMSO control.
Assay [3] has as its system MBNL1 binding to the CUG repeats. To be noted: in vitro; cited from earlier work.

Non-standard residues stand in square brackets, D forms with d. No end group written: not given here.

Regarding payawe, the entries for the “change of circular dichroism spectrum of CUG60” value in the assay on CUG60 RNA and in the assay on CUG60 RNA (listed as p29.4) were “did not occur” and “did not change the RNA spectrum”, respectively. For the same compound, the “activity on lethality phenotype (number of females), alanine scanning” value (“activity on lethality phenotype” for short) in assay [1] was “loss of activity”. Also, in the assay with 2-AP-(CUG)23 RNA (peptide 100 μM, RNA 1 μM (1:100)), the “increase in the fluorescence emission of 2-AP-(CUG)23” value is “None of these peptides caused changes”. Also, in the assay on FAM-(CUG)23 RNA, the “significant binding to FAM-(CUG)23 RNA” value is listed as “None”.

As for “p15: defined hexapeptide obtained following deconvolution of the D-amino acid combinatorial library ([dP][dQ][dY][dT][dQ][dE])”, the “destructuration of CUG23 probe, comparative 2-aminopurine assay” value with 2-AP-(CUG)23 RNA was “significant levels of specificity and efficacy”. The “Treated born/Control born” value in assay [2] (40 μM) is recorded as 0.5.

As to apyawe, in assay [1], the “activity on lethality phenotype” value was “loss of activity”. Moreover, the “significant binding to FAM-(CUG)23 RNA” value in the assay with FAM-(CUG)23 RNA was “None”.

For the compound `NC[C@@H]1O[C@H](O[C@H]2[C@@H](O)[C@H](O[C@@H]3[C@@H](O)[C@H](N)C[C@H](N)[C@H]3O[C@H]3O[C@H](CN)[C@@H](O)[C@H](O)[C@H]3N)O[C@@H]2CO)[C@H](N)[C@@H](O)[C@@H]1O` [neomycin B], the “binding of MBNL1 to the CUG repeats” value in assay [3] is “inhibited the binding of MBNL1”.

Consider ppyaae, for which the “activity on lethality phenotype” value in assay [1] is listed as “loss of activity”. The “significant binding to FAM-(CUG)23 RNA” value with FAM-(CUG)23 RNA is listed as “None”.

On to “p5: defined hexapeptide obtained following deconvolution of the D-amino acid combinatorial library ([dC][dQ][dY][dA][dQ][dE])”, for which, in the assay on 2-AP-(CUG)23 RNA, the “destructuration of CUG23 probe, comparative 2-aminopurine assay” value was “significant levels of specificity and efficacy”. In addition, in assay [2] (25 μM), the “Treated born/Control born” value amounted to 2.0.

With `CN1C(=Cc2cc[n+](C)c3ccccc23)Sc2ccccc21` [thiazole orange], the “binding of MBNL1 to the CUG repeats” value in assay [3] is given as “inhibited the binding of MBNL1”.

On to “p16: defined hexapeptide obtained following deconvolution of the D-amino acid combinatorial library ([dP][dQ][dY][dT][dW][dE])”, for which, in assay [2] (38.5 μM), the “Treated born/Control born” value came out at 0.4.

For the compound “p6: defined hexapeptide obtained following deconvolution of the D-amino acid combinatorial library ([dC][dQ][dY][dA][dW][dE])”, the “Treated born/Control born” value in assay [2] (25 μM) is recorded as “—”.

For ppaawe, the “activity on lethality phenotype” value in assay [1] is on record as “loss of activity”. Moreover, the “significant binding to FAM-(CUG)23 RNA” value in the assay with FAM-(CUG)23 RNA was “None”.

(Values after patent US20130143825A1, “COMPOUNDS FOR USE IN THE TREATMENT OF DISEASES BASED ON THE EXPRESSION OF TOXIC TRANSCRIPTS” (UNIVERSITAT DE VALENCIA, priority 2010, published 2013).)
